US20070249603A1, “3-Arylsulfonyl-Quinolines as 5-Ht6 Receptor Antagonists for the Treatment of Cns Disorders” (priority 2004, published 2007)
Structures can show the parent of a compound that is named as a salt.

Biological target: T1, human cloned 5-HT6 receptors (Homo sapiens, UniProt P50406)
T1 construct: expressed in transfected cells; host or cells: HeLa cells expressing cloned 5-HT6 receptor (membranes)
Assay: Cyclase assay (cAMP production in membranes of HeLa 5HT6 cells, antagonism of 5-HT)
Assay type: biochemical
Conditions: antagonist potency, 5-HT at 4×EC50, functional Ki by Cheng-Prusoff from IC50, read-out: fpKi (negative log10 of the molar functional Ki) (converted)
Experimental: Compounds of the invention may be tested for in vitro biological activity in accordance with the following cyclase assay:
0.5 μl of test compound in 100% dimethylsulfoxide (DMSO) was added to a white, solid 384 well assay plate (for dose response measurements the top of the concentration range is 7.5 μM final). […]
cAMP production was then measured using the DiscoveRx™ HitHunter™ chemiluminescence cAMP assay kit (DiscoveRx Corporation, 42501 Albrae Street, Fremont, Calif. 94538; Product Code: 90-0004L) or any other suitable cAMP measurement assay.
IC50 values were estimated from arbitrary designated unit (ADU) measurements from a Perkin Elmer Viewlux instrument using a four parameter logistic curve fit within EXCEL (Bowen, W. P. and Jerman, J. C. (1995), Nonlinear regression using spreadsheets. Trends in Pharmacol. Sci., 16, 413-417). Functional Ki values were calculated using the method of Cheng, Y. C. and Prussof, W. H. (Biochemical Pharmacol (1973) 22 3099-3108). pI50 and fpKi are the negative log10 of the molar IC50 and functional Ki respectively.

T1 sequence (P50406 whole entry): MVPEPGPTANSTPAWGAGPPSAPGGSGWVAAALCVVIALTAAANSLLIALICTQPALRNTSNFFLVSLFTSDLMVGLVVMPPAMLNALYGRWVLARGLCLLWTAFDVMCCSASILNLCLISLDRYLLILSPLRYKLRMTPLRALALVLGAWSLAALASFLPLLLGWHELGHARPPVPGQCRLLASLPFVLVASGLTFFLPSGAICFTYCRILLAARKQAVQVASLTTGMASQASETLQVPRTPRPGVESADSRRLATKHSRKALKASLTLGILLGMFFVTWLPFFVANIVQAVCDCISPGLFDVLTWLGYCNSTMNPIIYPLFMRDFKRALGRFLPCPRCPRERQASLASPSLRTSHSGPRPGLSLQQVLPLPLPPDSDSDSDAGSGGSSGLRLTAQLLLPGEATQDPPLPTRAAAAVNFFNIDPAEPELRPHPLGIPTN

Ki: 158 nM
Compound: CN(C)C1CCN(c2ccc(I)c3cc(S(=O)(=O)c4ccccc4)cnc23)CC1 [Example 13, 1-[5-Iodo-3-(phenylsulfonyl)-8-quinolinyl]-N,N-dimethyl-4-piperidinamine hydrochloride]
